Values after ≈ are worked out from the molar mass of the structure shown. Active and inactive are the calls of the source. The calls are words filed in the database; no cut-off is given here.
Key:
[1] = Clearance in Sprague-Dawley rat at 1 mg/kg, iv and 5 mg/kg, po; type: ADME, organism-based; conditions: in vivo
[2] = Half life in Sprague-Dawley rat at 1 mg/kg, iv and 5 mg/kg, po; type: ADME, organism-based; conditions: in vivo
Histamine H3 receptor [3] = target: Histamine H3 receptor (Rattus norvegicus, UniProt Q9QYN8); test: Displacement of [3H]NAMH from rat cloned […] expressed in CHO cells; type: cell-based
Sequence of Histamine H3 receptor (Rattus norvegicus, UniProt Q9QYN8) (Q9QYN8 whole entry): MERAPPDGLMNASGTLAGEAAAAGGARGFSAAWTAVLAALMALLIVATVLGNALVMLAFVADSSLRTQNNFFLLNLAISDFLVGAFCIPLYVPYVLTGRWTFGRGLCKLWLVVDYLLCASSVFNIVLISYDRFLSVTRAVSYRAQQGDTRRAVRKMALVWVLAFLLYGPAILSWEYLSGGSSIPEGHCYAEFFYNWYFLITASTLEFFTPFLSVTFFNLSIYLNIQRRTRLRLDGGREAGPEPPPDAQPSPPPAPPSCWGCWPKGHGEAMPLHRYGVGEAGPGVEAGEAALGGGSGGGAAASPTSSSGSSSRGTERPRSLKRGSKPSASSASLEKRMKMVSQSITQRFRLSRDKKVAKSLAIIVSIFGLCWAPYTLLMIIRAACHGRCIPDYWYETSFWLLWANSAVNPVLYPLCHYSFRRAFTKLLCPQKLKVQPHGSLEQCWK

Histamine H3 receptor [4] = target: Histamine H3 receptor (Homo sapiens, UniProt Q9Y5N1); test: Displacement of [3H]NAMH from human cloned […] expressed in CHO cells; type: cell-based
Sequence of Histamine H3 receptor (Homo sapiens, UniProt Q9Y5N1) (Q9Y5N1 whole entry): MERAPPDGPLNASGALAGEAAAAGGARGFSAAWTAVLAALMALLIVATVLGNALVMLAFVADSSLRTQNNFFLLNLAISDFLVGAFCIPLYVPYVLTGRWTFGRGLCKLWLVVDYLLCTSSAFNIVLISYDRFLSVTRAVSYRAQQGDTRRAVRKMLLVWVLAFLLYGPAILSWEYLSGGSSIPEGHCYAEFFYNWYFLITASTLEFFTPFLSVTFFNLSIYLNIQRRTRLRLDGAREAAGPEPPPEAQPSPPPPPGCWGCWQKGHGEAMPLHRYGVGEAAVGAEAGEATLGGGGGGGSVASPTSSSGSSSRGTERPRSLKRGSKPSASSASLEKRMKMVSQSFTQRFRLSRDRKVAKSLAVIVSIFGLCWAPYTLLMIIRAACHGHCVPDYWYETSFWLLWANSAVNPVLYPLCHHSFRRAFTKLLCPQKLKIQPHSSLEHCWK

[5] = Oral bioavailability in Sprague-Dawley rat at 5 mg/kg; type: ADME, organism-based; conditions: in vivo
[6] = Ratio of drug level in brain to plasma in Sprague-Dawley rat at 10 mg/kg, ip after 1 hr; type: ADME, organism-based; parameters: dose 10 mg/kg, route intraperitoneal; conditions: brain and plasma, read-out: BPR
Rattus norvegicus [7] = test: Cognitive effect in Sprague-Dawley rat social recognition model assessed as enhancement of short-term memory at 0.01 to 0.1 mg/kg, po measured after 120 mins; type: functional, organism-based
Mus musculus = test: Toxicity in mouse assessed as changes in behavioral and physiologic state up to 300 mg/kg, po by Irwin test; type: organism-based; parameters: dose 300 mg/kg, route oral; conditions: in vivo
Salmonella typhimurium = test: Mutagenic activity in Salmonella Typhimurium by Ames test; type: toxicity, organism-based; conditions: salmonella enterica subsp. enterica serovar typhimurium
[8] = Oral bioavailability in Sprague-Dawley rat at 10 mg/kg; type: ADME, organism-based; conditions: in vivo
[9] = Half life in Beagle dog at 1 mg/kg, iv and 3 mg/kg, po; type: ADME, organism-based, Canis lupus familiaris; conditions: in vivo
[10] = Half life in human; type: ADME, organism-based; conditions: in vivo
Cytochrome P450 1A2 = target: T1, Cytochrome P450 1A2 (Homo sapiens, UniProt P05177); test: Inhibition of CYP1A2; type: ADME
T1 sequence (P05177 whole entry): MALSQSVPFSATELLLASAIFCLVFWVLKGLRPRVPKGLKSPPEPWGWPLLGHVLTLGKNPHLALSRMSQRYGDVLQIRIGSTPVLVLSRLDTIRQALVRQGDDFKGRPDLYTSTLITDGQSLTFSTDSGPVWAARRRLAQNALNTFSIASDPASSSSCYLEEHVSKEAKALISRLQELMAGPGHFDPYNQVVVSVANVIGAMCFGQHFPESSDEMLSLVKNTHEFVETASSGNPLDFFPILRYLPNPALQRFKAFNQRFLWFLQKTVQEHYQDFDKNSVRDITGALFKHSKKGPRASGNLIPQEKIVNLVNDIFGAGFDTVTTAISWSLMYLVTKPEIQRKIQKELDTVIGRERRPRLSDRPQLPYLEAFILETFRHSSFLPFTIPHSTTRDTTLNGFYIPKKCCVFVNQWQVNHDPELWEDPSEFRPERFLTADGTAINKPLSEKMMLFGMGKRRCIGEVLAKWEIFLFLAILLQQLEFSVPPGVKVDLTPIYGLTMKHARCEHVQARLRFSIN

Cytochrome P450 2C9 = Cytochrome P450 2C9 (Homo sapiens, UniProt P11712); test: Inhibition of CYP2C9; type: ADME
Sequence of Cytochrome P450 2C9 (P11712 whole entry): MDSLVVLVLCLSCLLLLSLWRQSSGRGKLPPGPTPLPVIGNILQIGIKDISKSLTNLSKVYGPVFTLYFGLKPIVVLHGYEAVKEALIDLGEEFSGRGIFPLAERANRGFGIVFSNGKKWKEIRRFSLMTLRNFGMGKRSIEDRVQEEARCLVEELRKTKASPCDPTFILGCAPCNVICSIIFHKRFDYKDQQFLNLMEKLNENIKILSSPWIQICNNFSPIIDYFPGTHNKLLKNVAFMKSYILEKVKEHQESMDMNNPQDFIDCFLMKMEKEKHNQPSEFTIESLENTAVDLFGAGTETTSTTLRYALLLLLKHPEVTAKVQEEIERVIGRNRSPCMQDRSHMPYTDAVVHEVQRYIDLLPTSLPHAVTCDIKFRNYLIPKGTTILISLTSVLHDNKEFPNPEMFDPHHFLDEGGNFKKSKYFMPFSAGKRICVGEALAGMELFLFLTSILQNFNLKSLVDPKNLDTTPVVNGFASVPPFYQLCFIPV

Cytochrome P450 2C19 = Cytochrome P450 2C19 (Homo sapiens, UniProt P33261); test: Inhibition of CYP2C19; type: ADME
Sequence of Cytochrome P450 2C19 (P33261 whole entry): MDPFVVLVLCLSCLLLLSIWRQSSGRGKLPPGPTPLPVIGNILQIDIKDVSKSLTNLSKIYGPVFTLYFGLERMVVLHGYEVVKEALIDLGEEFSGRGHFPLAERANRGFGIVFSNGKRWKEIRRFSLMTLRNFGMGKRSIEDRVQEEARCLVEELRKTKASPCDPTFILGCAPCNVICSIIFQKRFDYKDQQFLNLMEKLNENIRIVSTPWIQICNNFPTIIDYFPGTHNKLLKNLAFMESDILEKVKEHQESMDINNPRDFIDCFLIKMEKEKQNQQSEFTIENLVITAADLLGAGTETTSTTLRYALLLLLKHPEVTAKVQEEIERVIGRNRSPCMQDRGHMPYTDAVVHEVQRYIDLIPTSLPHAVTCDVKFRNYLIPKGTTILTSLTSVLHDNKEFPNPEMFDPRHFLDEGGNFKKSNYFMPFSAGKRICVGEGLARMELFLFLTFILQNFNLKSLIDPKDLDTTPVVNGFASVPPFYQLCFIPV

Cytochrome P450 2D6 = Cytochrome P450 2D6 (Homo sapiens, UniProt P10635); test: Inhibition of CYP2D6; type: ADME
Sequence of Cytochrome P450 2D6 (P10635 whole entry): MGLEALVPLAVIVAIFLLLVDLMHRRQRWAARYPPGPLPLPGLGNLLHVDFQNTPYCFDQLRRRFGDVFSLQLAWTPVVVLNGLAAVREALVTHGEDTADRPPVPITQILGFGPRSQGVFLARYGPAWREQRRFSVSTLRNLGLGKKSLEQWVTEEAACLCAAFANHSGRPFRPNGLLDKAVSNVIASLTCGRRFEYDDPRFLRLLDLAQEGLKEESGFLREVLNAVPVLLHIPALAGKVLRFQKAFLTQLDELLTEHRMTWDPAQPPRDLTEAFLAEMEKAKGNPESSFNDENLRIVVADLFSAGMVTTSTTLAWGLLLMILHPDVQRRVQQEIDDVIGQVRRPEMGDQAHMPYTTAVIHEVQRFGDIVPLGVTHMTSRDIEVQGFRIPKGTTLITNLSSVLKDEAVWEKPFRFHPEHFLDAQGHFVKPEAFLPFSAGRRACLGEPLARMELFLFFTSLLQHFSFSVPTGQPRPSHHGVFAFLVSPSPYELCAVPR

Cytochrome P450 3A4 = Cytochrome P450 3A4 (Homo sapiens, UniProt P08684); test: Inhibition of CYP3A4; type: ADME
Sequence of Cytochrome P450 3A4 (P08684 whole entry): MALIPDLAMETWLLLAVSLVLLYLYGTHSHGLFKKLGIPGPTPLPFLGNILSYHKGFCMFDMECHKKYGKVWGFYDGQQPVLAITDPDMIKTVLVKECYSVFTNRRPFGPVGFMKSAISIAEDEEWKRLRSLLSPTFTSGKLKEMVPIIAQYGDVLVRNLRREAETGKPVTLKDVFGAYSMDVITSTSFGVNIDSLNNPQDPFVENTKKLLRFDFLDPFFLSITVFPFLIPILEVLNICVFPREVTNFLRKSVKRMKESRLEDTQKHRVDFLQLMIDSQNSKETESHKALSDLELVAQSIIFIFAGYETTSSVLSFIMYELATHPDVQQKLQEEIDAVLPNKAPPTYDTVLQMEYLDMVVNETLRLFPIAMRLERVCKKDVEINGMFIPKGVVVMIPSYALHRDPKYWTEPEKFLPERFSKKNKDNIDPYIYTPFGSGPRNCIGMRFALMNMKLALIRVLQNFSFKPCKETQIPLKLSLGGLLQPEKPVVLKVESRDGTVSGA

[11] = Apparent permeability in human Caco2 cells; type: ADME, cell-based; conditions: Caco-2
[12] = Solubility of the compound in water at pH 2; type: physicochemical
[13] = Solubility of the compound in water at pH 7.4; type: physicochemical
[14] = Plasma protein binding in Sprague-Dawley rat; type: ADME, cell-free; conditions: read-out: PPB (converted)
[15] = Plasma protein binding in Beagle dog; type: ADME, cell-free, Canis lupus familiaris; conditions: read-out: PPB (converted)
[16] = Plasma protein binding in human; type: ADME, cell-free; conditions: read-out: PPB (converted)
[17] = Fraction unbound in Sprague-Dawley rat brain homogenate; type: ADME, tissue-based
[18] = Half life in Sprague-Dawley rat at 1 mg/kg, iv; type: ADME, organism-based; parameters: dose 1 mg/kg, route intravenous; conditions: in vivo
[19] = Half life in Beagle dog at 1 mg/kg, iv; type: ADME, organism-based, Canis lupus familiaris; parameters: dose 1 mg/kg, route intravenous; conditions: in vivo
[20] = Half life in cynomolgus monkey at 1 mg/kg, iv; type: ADME, organism-based, Macaca fascicularis; parameters: dose 1 mg/kg, route intravenous; conditions: in vivo
[21] = Volume of distribution in Sprague-Dawley rat at 1 mg/kg, iv and 10 mg/kg, po; type: ADME, organism-based; conditions: in vivo
[22] = Volume of distribution in Beagle dog at 1 mg/kg, iv and 3 mg/kg, po; type: ADME, organism-based, Canis lupus familiaris; conditions: in vivo
[23] = Volume of distribution in cynomolgus monkey at 1 mg/kg, iv and 3 mg/kg, po; type: ADME, organism-based, Macaca fascicularis; conditions: in vivo
[24] = Clearance in Sprague-Dawley rat at 1 mg/kg, iv and 10 mg/kg, po; type: ADME, organism-based; conditions: in vivo
[25] = Clearance in Beagle dog at 1 mg/kg, iv and 3 mg/kg, po; type: ADME, organism-based, Canis lupus familiaris; conditions: in vivo
[26] = Clearance in cynomolgus monkey at 1 mg/kg, iv and 3 mg/kg, po; type: ADME, organism-based, Macaca fascicularis; conditions: in vivo
[27] = AUC in Sprague-Dawley rat at 10 mg/kg, po; type: ADME, organism-based; parameters: dose 10 mg/kg, route oral; conditions: plasma
[28] = AUC in Beagle dog at 3 mg/kg, po; type: ADME, organism-based, Canis lupus familiaris; parameters: dose 3 mg/kg, route oral; conditions: plasma
[29] = AUC in cynomolgus monkey at 3 mg/kg, po; type: ADME, organism-based, Macaca fascicularis; parameters: dose 3 mg/kg, route oral; conditions: plasma
[30] = Cmax in Sprague-Dawley rat at 1 mg/kg, iv and 10 mg/kg, po; type: ADME, organism-based; conditions: in vivo
[31] = Cmax in Beagle dog at 1 mg/kg, iv and 3 mg/kg, po; type: ADME, organism-based, Canis lupus familiaris; conditions: in vivo
[32] = Cmax in cynomolgus monkey at 1 mg/kg, iv and 3 mg/kg, po; type: ADME, organism-based, Macaca fascicularis; conditions: in vivo
[33] = Half life in Sprague-Dawley rat at 1 mg/kg, iv and 10 mg/kg, po; type: ADME, organism-based; conditions: in vivo
[34] = Half life in cynomolgus monkey at 1 mg/kg, iv and 3 mg/kg, po; type: ADME, organism-based, Macaca fascicularis; conditions: in vivo
[35] = Oral bioavailability in Beagle dog at 3 mg/kg; type: ADME, organism-based, Canis lupus familiaris; conditions: in vivo
[36] = Oral bioavailability in cynomolgus monkey at 3 mg/kg; type: ADME, organism-based, Macaca fascicularis; conditions: in vivo
Rattus norvegicus [37] = test: Inhibition of RAMH-induced dispogenia in po dosed Long Evans rat measured for 30 mins; type: functional

Cc1nn(C)c(=O)cc1-c1ccc(OCCCN2CCC[C@H]2C)cc1
clearance [1]: 67 mL/min/kg
half-life [2]: 72 min
Ki (Histamine H3 receptor [3]): 6.5 nM
Ki (Histamine H3 receptor [4]): 2 nM
bioavailability [5]: 53%
Kp at 1 h [6]: 1.7

Cc1nn(-c2ccccn2)c(=O)cc1-c1ccc(OCCCN2CCC[C@H]2C)cc1
clearance [1]: 13 mL/min/kg
half-life [2]: 78 min
Ki (Histamine H3 receptor [3]): 5 nM
Ki (Histamine H3 receptor [4]): 1.7 nM
bioavailability [5]: 15%
Kp at 1 h [6]: 0.7

Cc1cccnc1-n1ncc(-c2ccc(OCCCN3CCC[C@H]3C)cc2)cc1=O
clearance [1]: 34 mL/min/kg
half-life [2]: 108 min
Ki (Histamine H3 receptor [3]): 8.6 nM
Ki (Histamine H3 receptor [4]): 2.5 nM
bioavailability [5]: 30%
Kp at 1 h [6]: 0.2

Cc1nn(C)c(=O)cc1-c1ccc(OCCCN2CCCCC2)cc1
clearance [1]: 48 mL/min/kg
half-life [2]: 96 min
Ki (Histamine H3 receptor [3]): 18 nM
Ki (Histamine H3 receptor [4]): 8.9 nM
bioavailability [5]: 69%
Kp at 1 h [6]: 2.4

Cc1n[nH]c(=O)cc1-c1ccc(OCCCN2CCC[C@H]2C)cc1
clearance [1]: 25 mL/min/kg
half-life [2]: 84 min
Ki (Histamine H3 receptor [3]): 5.1 nM
Ki (Histamine H3 receptor [4]): 1.6 nM
bioavailability [5]: 20%
Kp at 1 h [6]: 1.6

C[C@@H]1CCCN1CCCOc1ccc(-c2cnn(C)c(=O)c2)cc1
clearance [1]: 32 mL/min/kg
half-life [2]: 60 min
Ki (Histamine H3 receptor [3]): 5.5 nM
Ki (Histamine H3 receptor [4]): 1.9 nM
bioavailability [5]: 19%
Kp at 1 h [6]: 3.3

C[C@@H]1CCCN1CCCOc1ccc(-c2cnn(-c3ccccn3)c(=O)c2)cc1
Activity (Rattus norvegicus [7]): Active
Activity (Mus musculus): Non-toxic
Activity (Salmonella typhimurium): Toxic
clearance [1]: 19 mL/min/kg
half-life [2]: 102 min
bioavailability [8]: 78%
Kp at 1 h [6]: 1.1
half-life [9]: 48 min
half-life [10]: > 40 min
IC50 (Cytochrome P450 1A2): > 30 µM
IC50 (Cytochrome P450 2C9): > 30 µM
IC50 (Cytochrome P450 2C19): > 30 µM
IC50 (Cytochrome P450 2D6): > 30 µM
IC50 (Cytochrome P450 3A4): > 30 µM
Papp [11]: 13.7 ×10⁻⁶ cm/s
solubility [12]: 1400 µg/mL (≈ 3590 µM)
solubility [13]: 900 µg/mL (≈ 2300 µM)
fraction unbound [14]: 0.55
fraction unbound [15]: 0.68
fraction unbound [16]: 0.56
fraction unbound [17]: 0.39
half-life [18]: 102 min
half-life [19]: 216 min
half-life [20]: 234 min
Vd [21]: 3 L/kg
Vd [22]: 5.9 L/kg
Vd [23]: 7.1 L/kg
clearance [24]: 20 mL/min/kg
clearance [25]: 19 mL/min/kg
clearance [26]: 21 mL/min/kg
AUC [27]: 6800 ng·h/mL
AUC [28]: 2400 ng·h/mL
AUC [29]: 2080 ng·h/mL
Cmax [30]: 898 ng/mL
Cmax [31]: 417 ng/mL
Cmax [32]: 326 ng/mL
half-life [33]: 270 min
half-life [34]: 390 min
bioavailability [35]: 92%
bioavailability [36]: 96%
inhibition (Rattus norvegicus [37]): Dose-dependent effect
ED50 (Rattus norvegicus [37]; 0.5 h): 0.07 mg/kg

C[C@@H]1CCCN1CCCOc1ccc(-c2ccc(=O)[nH]n2)cc1 [IRDABISANT]
Ki (Histamine H3 receptor [3]): 8.5 nM
bioavailability [8]: 83%
Kp at 1 h [6]: 2.6

C[C@H]1CCCN1CCCOc1ccc(-c2cnn(-c3ccccn3)c(=O)c2)cc1
clearance [1]: 45 mL/min/kg
half-life [2]: 168 min
bioavailability [5]: 52%
Kp at 1 h [6]: 1.7

O=c1cc(-c2ccc(OCCCN3CCCCC3)cc2)cn[nH]1
clearance [1]: 24 mL/min/kg
half-life [2]: 96 min
Ki (Histamine H3 receptor [3]): 28 nM
Ki (Histamine H3 receptor [4]): 19 nM
bioavailability [5]: 42%
Kp at 1 h [6]: 3

From ChEMBL document CHEMBL1955733, “Optimization of 5-pyridazin-3-one phenoxypropylamines as potent, selective histamine H₃ receptor antagonists with potent cognition enhancing activity” (J Med Chem, 2012)
